Data published in patent publication US7488712B2, “Histone deacetylase inhibitors and methods for producing the same” (Kyushu Institute of Technology, priority 2002, dated 2009).

Assays:
in vitro = details: human, Cancer-Cell-Selective Cytotoxicity, LD50 for normal cells/LD50 for cancer cells (TIG-3/HeLa)
Protocol: Human normal lung cells (TIG-3) and human uterine cancer cells (HeLa) were used to test SCOP cytotoxicity. These TIG-3 and HeLa cells were cultured in a DMEM medium comprising 10% FBS at 37° C. in the presence of 5% carbon dioxide in a steam-saturated incubator. The TIG-3 and HeLa cells were plated in 100 μl/well of the above-described medium on a 96-well microtiter plate, at a density of 30,000 cells/well and 10,000 cells/well respectively. This was then cultured for 18 hours. Test compound solution diluted with medium was added to each well and culture was continued for another 48 hours.
30 μl of supernatant from each well was transferred to another 96-well microtiter plate (A), and the remaining supernatant was discarded. 100 μl of 0.5% Triton-X/PBS was added to each well to lyse the cells, and 30 μl was then transferred to each respective well of another 96-well microtiter plate (B). 30 μl of LDH-Cytotoxic Test (Wako) substrate solution was added to each well of these 96-well microtiter plates A and B, causing a color reaction. Once the color reaction was sufficiently progressed, it was stopped by adding 60 μl of a quenching solution. Color intensity was measured at OD560 nm using a microplate reader (Softmax). [A/(A+B)] was calculated as the free-LDH ratio. […] The higher the activity value for cancer-cell-selective cell damage (LD50 for normal cells/LD50 for cancer cells), the more that cancer-cell-selective apoptosis was induced.

[1] = tested on: human wild-type p21 promoter; experiment: p21 promoter-inducing activity (luciferase) in MFLL-9 cells; assay type: cell-based
human HDAC4 = target: T1, human HDAC4 (Homo sapiens, UniProt P56524); experiment: In vitro HDAC inhibition activity, [3H]-acetylated histone substrate, HDAC4; assay type: biochemical; details: Table 3
T1 construct: FLAG; made in house; host or cells: 293T cells (transient transfection, anti-FLAG immunoprecipitation, FLAG peptide elution)
T1 sequence (O15379 whole entry partner): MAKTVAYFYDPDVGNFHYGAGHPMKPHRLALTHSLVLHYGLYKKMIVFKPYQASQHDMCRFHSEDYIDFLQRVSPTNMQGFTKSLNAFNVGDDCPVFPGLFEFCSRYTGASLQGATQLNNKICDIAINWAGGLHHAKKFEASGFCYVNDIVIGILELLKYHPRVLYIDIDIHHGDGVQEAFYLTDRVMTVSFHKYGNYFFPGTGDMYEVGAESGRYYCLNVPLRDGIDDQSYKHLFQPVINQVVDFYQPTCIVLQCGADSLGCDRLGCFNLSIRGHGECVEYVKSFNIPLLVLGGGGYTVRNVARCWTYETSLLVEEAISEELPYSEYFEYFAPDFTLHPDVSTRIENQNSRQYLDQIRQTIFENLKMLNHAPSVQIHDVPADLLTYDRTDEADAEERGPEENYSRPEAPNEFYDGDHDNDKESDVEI
T1 sequence (P56524 whole entry): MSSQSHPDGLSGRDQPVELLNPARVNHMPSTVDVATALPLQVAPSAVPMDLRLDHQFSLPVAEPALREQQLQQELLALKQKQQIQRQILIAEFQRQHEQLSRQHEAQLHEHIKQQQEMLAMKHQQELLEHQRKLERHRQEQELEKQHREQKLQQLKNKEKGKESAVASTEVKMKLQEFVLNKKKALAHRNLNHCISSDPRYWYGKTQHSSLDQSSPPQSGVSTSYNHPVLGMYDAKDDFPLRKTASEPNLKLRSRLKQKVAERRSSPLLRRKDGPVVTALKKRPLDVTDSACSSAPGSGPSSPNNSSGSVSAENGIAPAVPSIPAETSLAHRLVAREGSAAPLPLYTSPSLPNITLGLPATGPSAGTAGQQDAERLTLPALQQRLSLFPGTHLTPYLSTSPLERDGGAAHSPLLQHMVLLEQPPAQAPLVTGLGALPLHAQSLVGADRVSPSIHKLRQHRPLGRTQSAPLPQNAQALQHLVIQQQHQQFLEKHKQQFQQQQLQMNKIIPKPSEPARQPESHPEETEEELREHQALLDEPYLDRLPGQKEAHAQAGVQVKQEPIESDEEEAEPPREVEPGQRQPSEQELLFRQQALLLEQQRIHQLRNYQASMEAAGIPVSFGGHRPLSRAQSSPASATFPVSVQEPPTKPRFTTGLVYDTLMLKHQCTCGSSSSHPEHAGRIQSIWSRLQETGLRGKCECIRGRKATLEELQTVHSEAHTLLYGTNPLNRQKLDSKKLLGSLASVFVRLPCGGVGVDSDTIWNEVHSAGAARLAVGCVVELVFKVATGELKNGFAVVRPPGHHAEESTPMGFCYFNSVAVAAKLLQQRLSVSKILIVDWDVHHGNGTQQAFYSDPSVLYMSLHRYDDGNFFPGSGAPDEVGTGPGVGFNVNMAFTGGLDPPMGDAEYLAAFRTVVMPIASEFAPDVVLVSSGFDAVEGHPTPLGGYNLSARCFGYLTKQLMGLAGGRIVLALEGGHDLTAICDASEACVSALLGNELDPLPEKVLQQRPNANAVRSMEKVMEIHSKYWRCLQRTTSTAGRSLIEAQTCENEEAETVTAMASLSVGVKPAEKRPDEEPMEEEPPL

Compound `CC[C@H](C)[C@@H]1NC(=O)[C@@H](Cc2ccc(OC)cc2)NC(=O)[C@H](CCCCCSSc2ccncc2)NC(=O)[C@H]2CCCN2C1=O` [SCOP 402, cyclo(-L-Am7(S4Py)-D-Tyr(Me)-L-Ile-D-Pro-)] has a selectivity ratio at 48 h (in vitro; with DTT (/DTT)) of 27.8, a selectivity ratio at 48 h (in vitro; without DTT) of 11.4 and an EC50 ([1]; Table 3, hybrid with DTT (/DTT)) of 470 nM. The EC50 ([1]; Table 3, hybrid, without DTT) was 1310 nM, the IC50 (human HDAC4; hybrid with DTT (/DTT)) was 1.12 nM and the IC50 (human HDAC4; hybrid, without DTT) was 68.3 nM.
